Target: T1, Dimer of Gag-Pol polyprotein [489-587] (Human immunodeficiency virus 1, UniProt P12497)
T1 construct: 489-587
Test: Protease Inhibition Assay
Settings: pH 6.2; 37 °C
Method: Inhibition constants were determined by a fluorometric assay with the fluorogenic substrate Arg-Glu(EDANS)-Ser-Gln-Asn-Tyr-Pro-Ile-Val-Lys(DABCYL)-Arg. The data were analyzed with the mathematical model for tight-binding inhibitors in which the concentration of inhibitor is less than or equal to the enzyme concentration. The data were fitted by nonlinear regression analysis to the equation with program Enzfitter (version 1.05).

| Compound | Ki [pM] |
| --- | --- |
| CSC[C@H](NC(=O)COc1cccc2cnccc12)C(=O)N[C@@H](Cc1ccccc1)[C@H](O)C(=O)N1CSC(C)(C)[C@H]1C(=O)NC(C)(C)C | 2.3 |
| CC(C)(C)NC(=O)[C@H]1N(C(=O)[C@@H](O)[C@H](Cc2ccccc2)NC(=O)[C@H](CC(N)=O)NC(=O)COc2cccc3ccccc23)CSC1(C)C [Noa-Asn-Apns-Dmt-NH-tBu] | 6.8 |
| CSC[C@H](NC(=O)COc1cccc2cnccc12)C(=O)N[C@@H](Cc1ccccc1)[C@H](O)C(=O)N1CSC[C@H]1C(=O)NC(C)(C)C [Kynostatin 272] | 5.5 |

From BindingDB's records for doi:10.1128/AAC.37.4.810 (National Cancer Institute-Bethesda, 1993)
